For one assay, the target named is Aβ oligomers (Homo sapiens, UniProt P05067). Put plainly: Analysis of binding property using QCM apparatus, sensor with Aβ oligomers fixed (Test Example 3). Particulars: final concentration 10 μM in PBS. The method, then:
(§1) Aβ oligomers or Aβ fibrils were fixed to the sensor portion of the QCM apparatus, and immersed in PBS in a glass container. Subsequently, Compound 8 or Compound 1 was added thereto to a final concentration of 10 μM, and a frequency change was recorded from immediately after the addition.

In another assay the target is T1, Aβ fibrils (Homo sapiens, UniProt P05067).
T1 construct: Aβ oligomers or Aβ fibrils were fixed to the sensor portion of the QCM apparatus
T1 sequence (P05067 672-713 limits assumed): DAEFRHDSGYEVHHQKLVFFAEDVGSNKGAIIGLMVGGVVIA
Put plainly: Analysis of binding property using QCM apparatus, sensor with Aβ fibrils fixed (Test Example 3). The conditions noted are these: final concentration 10 μM in PBS. Here is the method:
as §1

The next assay has as its target T2, senile plaques (Homo sapiens, UniProt P05067).
T2 construct: Spots of amyloid β, which forms senile plaques; tissue Jackson Laboratory; host or cells: brain of live APP/PS1 double transgenic mice
Put plainly: 19F-MR image measurement of the brain after tail vein injection (Test Example 1). The format is in vivo, mouse. The conditions noted are these: 200 mg/kg tail vein, three-hour measurement beginning five hours after injection, 7T. Here is the method:
Compound 1 was weighed out in an amount of 10 mg, and 0.125 ml of 80% Tween-80 was added thereto, followed by dissolution using a glass rod under heating. Subsequently, 0.875 ml of physiological saline was added thereto to prepare a solution for injection (10 mg/ml). The solution was injected in a total amount of 200 mg/kg at […] to the tail vein of each of the genetically modified model mice of Alzheimer's disease (APP/PS1) and the normal wild mice (Wild), which had been subjected to pentobarbital sodium anesthesia. As the genetically modified model mice of Alzheimer's disease (APP/PS1), amyloid precursor protein and presenilin 1 double transgenic mice (APP/PS1, purchased from Jackson Laboratory and bred) were used. After the completion of the injection, under anesthesia, the head of each mouse was continuously evaluated every hour using an MRI apparatus, and all data were added to form images. The brain image of ^19F-MRI was obtained according to the chemical shift imaging method (CSI method). As the MRI apparatus, a 7T Unity Inova MR Scanner (produced by Varian Medical System) was used. Each of the genetically modified model mice of Alzheimer's disease (APP/PS1) and normal wild mice (Wild) were injected with Compound 1. […] FIGS. 1A and 1C are ^19F-MRI images, and FIGS. 1B and 1D are composite photos of ^19F-MRI and ^1H-MRI images.

Entries after “also recorded” stand apart in the source; their conditions may differ.

Sequence of Aβ oligomers (P05067 672-713 limits assumed): as above
T2 sequence (P05067 672-713 limits assumed): as above

As for `COC(=O)CCC(C(=O)/C=C/c1ccc(O)c(OC(F)(F)F)c1)C(=O)/C=C/c1ccc(O)c(OC(F)(F)F)c1` [Compound 8], the “binding to Aβ oligomers (conclusion from QCM)” value on Aβ oligomers was “binding to both Aβ oligomers and Aβ fibrils”. Moreover, on Aβ fibrils, the “QCM frequency change, sensor with Aβ fibrils fixed (Fibrillar) compared to Control” value is “significant frequency reduction; also recorded: frequency reduction was observed”; the “binding to Aβ fibrils (conclusion from QCM)” value was “binding to both Aβ oligomers and Aβ fibrils”.
Take `CN(C)c1ccc(/C=C/c2nc3ccc(OCCOCCOCCOCCOCCOCCOCCOCC(F)(F)F)cc3o2)cc1` [Compound 1, 6-(3′,6′,9′,12′,15′,18′,21′-heptaoxa-23′,23′,23′-trifluorotricosanyloxy)-2-(4′-dimethylaminostyryl)benzoxazole]: the “19F-MR signals presumed to be senile plaques inside of the brain” value at senile plaques (genetically modified model mice of Alzheimer's disease (APP/PS1)) is recorded as “signals presumed to be senile plaques were detected inside of the brain”; on senile plaques (normal wild mouse (Wild)) it was “such signals were not detected”. Moreover, at Aβ oligomers, the “binding to Aβ oligomers (conclusion from QCM)” value is given as “does not bind to Aβ oligomers”. Moreover, the “binding to Aβ fibrils (conclusion from QCM)” value at Aβ fibrils is “binds to Aβ fibrils”.

(Values after patent US20150352232A1, “MR IMAGING DIAGNOSTIC AGENT FOR INTRACTABLE NEUROLOGICAL DISEASE” (SHIGA UNIVERSITY OF MEDICAL SCIENCE, priority 2013, published 2015).)
